Data published in patent US11254671B2, “Chemical compounds” (GLAXOSMITHKLINE INTELLECTUAL PROPERTY DEVELOPMENT LIMITED, priority 2017, dated 2022).

What follows are compounds tested on phosphorylated Akt at serine 473 (pAKTs473) in primary human lung fibroblasts (assay: Highthroughput phosphorylated Akt (Ser473) in vitro immunoassay (MSD)). Conditions: Fibroblast, 1 h compound, PDGF-BB 10 ng/ml for 10 min, mean of multiple experiments, read-out: mean pIC50, inhibition of pAkt (Ser473) (converted).
Format: cell-based
Description: Highthroughput Phosphorylated Akt (Ser473) In Vitro Immunoassay
Immunoassay to measure effect of test compounds on phosphorylated Akt at serine 473 (pAKTs473) in primary human lung fibroblasts (Lonza Group Ltd, Basel, Switzerland, Catalogue No. CC-2512) using the MesoScale Discovery (MSD) platform to quantify levels of total Akt and pAKTser473.
Human lung fibroblasts were routinely maintained in fibroblast basal medium supplemented with 2% foetal bovine serum (FBS), 0.1% human fibroblast growth factor (FGF)-B, 0.1% insulin, 0.1% GA-100 (Lonza Group Ltd, Basel, Switzerland, Catalogue No. CC-3132) at 37° C. in 5% CO2 according to the manufacturer's protocol.
For the assay, cells were harvested using Trypsin/EDTA, (Lonza Group Ltd, Basel, Switzerland, Catalogue No. CC-5012), at working concentration of 0.025%, resuspended to give 3×10^5 cells/ml and 50 ul/well seeded into 384-well plates (Greiner Group, Kremsmunster, Austria, Catalogue No. 781091) in media containing 0.4% FBS and incubated o/n at 37° C. in 5% CO2.
Test compounds were dissolved in 100% DMSO to give 10 mM stock solutions and serially diluted to generate an 11-point concentration response curve. Compound were further diluted by […] into 384-well V-bottom polypropylene plates (Greiner Group, Kremsmunster, Austria, Catalogue No. 781280) with media containing 0.4% FBS to give 50 μM top compound concentration in 0.5% DMSO.
Compounds were transferred to 384-well plates contacting cells (0.1% DMSO final) and incubated for 1 h at 37° C. in 5% CO2, prior to stimulation with platelet-derived growth factor (PDGF)-BB (R&D Systems, Catalogue No. 220-BB) at 10 ng/ml (final) for 10 min at RT. Cell assay plates were incubated on ice and treated with lysis buffer (Cell Signalling Technology, Catalogue No. 9806) containing protease and phosphatase inhibitors (Thermo Scientific, Catalogue No. 78444) followed by shaking for 30 min at 4° C.
MSD plates (MSD, MA6000 384-well GAR plate, Catalogue No. L21RA-2) were blocked with blocking buffer containing TBS (MSD, Cat. No. R61TX-1) with 0.5% bovine serum albumin (BSA) (Sigma Aldrich, Cat. No. A7906), 0.1% tween-20 (Sigma Aldrich, Catalogue No. P2287) and coated with rabbit-anti-human pAkt (s473) ab (Cell Signalling Technology, Catalogue No. CST #4060) at RT with shaking, followed by washing (×3) with 1×TBS wash reagent containing 0.1% Tween-20. Cell lysates (30 ul) were added and MSD plates centrifuged at 1000 rpm at 4° C. o/n.
Plates were washed with 1×TBS wash buffer (×3), prior to addition of mouse-anti-human-total Akt ab (1 mg/ml) (Upstate (Milipore), Catalogue No. 05-591) in blocking buffer and shaken at RT for 1 h. After washing with 1×TBS wash buffer (×3), plates were incubated with goat-anti-mouse SULFO-TAG detection ab (MSD, Catalogue No. R32AC-1) (1:500 in blocking buffer) for 1 h at RT. Plates were washed with 1×TBS (×3) and read buffer (2×) (MSD, Catalogue No. R92TC-1) added before detecting electrochemiluminescence (MSD Sector Imager 6000).
Data analysis was performed by determining % inhibition values for test compounds relative to the minimum (+PDGF-BB stimulation) and maximum responses (no PDGF-BB stimulation) with non-linear regression analysis to determine IC50 values for test compounds.
`CNCc1cc2nc(-c3cc(CS(C)(=O)=O)cc(N4CCOC[C@@H]4C)n3)ccc2[nH]1` [Example 6, (S)—N-methyl-1-(5-(6-(3-methylmorpholino)-4-((methylsulfonyl)methyl)pyridin-2-yl)-1H-pyrrolo[3,2-b]pyridin-2-yl)methanamine] showed an IC50 of 3.16 to 316 nM. `CC[C@H]1COCCN1c1cc(C(C)(C)S(C)(=O)=O)cc(-c2ccc3[nH]c(CN)cc3n2)n1` [Example 21, 1-(5-{6-[(3S)-3-ethylmorpholin-4-yl]-4-(2-methanesulfonylpropan-2-yl)pyridin-2-yl}-1H-pyrrolo[3,2-b]pyridin-2-yl)methanamine] gave an IC50 of 3.16 to 316 nM. In the case of `CC[C@H]1COCCN1c1cc(C(C)(C)S(C)(=O)=O)cc(-c2ccc3[nH]c(CO)cc3n2)n1` [Example 32], the IC50 was 3.16 to 316 nM. In the case of `CC[C@H]1COCCN1c1cc(C2(S(C)(=O)=O)CC2)cc(-c2ccc3[nH]c(CNC)cc3n2)n1` [Example 19, [(5-{6-[(3S)-3-ethylmorpholin-4-yl]-4-(1-methanesulfonylcyclopropyl)pyridin-2-yl}-1H-pyrrolo[3,2-b]pyridin-2-yl)methyl](methyl)amine], the IC50 was 2.51 to 10 nM. Work on `CNCc1cc2nc(-c3cc(C(C)(C)S(C)(=O)=O)cc(N4C5CCCC4COC5)n3)ccc2[nH]1` [Example 5, 1-(5-(6-(3-oxa-9-azabicyclo[3.3.1]nonan-9-yl)-4-(2-(methylsulfonyl)propan-2-yl)pyridin-2-yl)-1H-pyrrolo[3,2-b]pyridin-2-yl)-N-methylmethanamine] yielded an IC50 of 3.16 to 316 nM. `CCS(=O)(=O)C(C)(C)c1cc(-c2ccc3[nH]c(CNC)cc3n2)nc(N2CCOC[C@@H]2C)c1` [Example 7, (S)-1-(5-(4-(2-(ethylsulfonyl)propan-2-yl)-6-(3-methylmorpholino)pyridin-2-yl)-1H-pyrrolo[3,2-b]pyridin-2-yl)-N-methylmethanamine] showed an IC50 of 3.16 to 316 nM. `CC[C@H]1COCCN1c1cc(C2(S(=O)(=O)N(C)C)CCOCC2)cc(-c2ccc3[nH]c(CNC)cc3n2)n1` [Example 31, 4-{2-[(3S)-3-ethylmorpholin-4-yl]-6-{2-[(methylamino)methyl]-1H-pyrrolo[3,2-b]pyridin-5-yl}pyridin-4-yl}-N,N-dimethyloxane-4-sulfonamide] was tested, and the IC50 was 2.51 to 10 nM. `CC[C@H]1COCCN1c1cc(CS(=O)(=O)C2CC2)cc(-c2ccc3[nH]c(CNC)cc3n2)n1` [Example 10, (S)-1-(5-(4-((cyclopropylsulfonyl)methyl)-6-(3-ethylmorpholino)pyridin-2-yl)-1H-pyrrolo[3,2-b]pyridin-2-yl)-N-methylmethanamine] gave an IC50 of 2.51 to 10 nM. For `CC[C@H]1COCCN1c1cc(C2(S(C)(=O)=O)CCOCC2)cc(-c2ccc3[nH]c(CO)cc3n2)n1` [Example 33, (5-{6-[(3S)-3-ethylmorpholin-4-yl]-4-(4-methanesulfonyloxan-4-yl)pyridin-2-yl}-1H-pyrrolo[3,2-b]pyridin-2-yl)methanol], the IC50 was 2.51 to 10 nM. `CNCc1cc2nc(-c3cc(CS(C)(=O)=O)cc(N4CC5CCC(C4)O5)n3)ccc2[nH]1` [Example 25, ({5-[4-(methanesulfonylmethyl)-6-{8-oxa-3-azabicyclo[3.2.1]octan-3-yl}pyridin-2-yl]-1H-pyrrolo[3,2-b]pyridin-2-yl}methyl)(methyl)amine] showed an IC50 of 3.16 to 316 nM. For `CNCc1cc2nc(-c3cc(C(C)(C)S(C)(=O)=O)cc(N4[C@@H]5CC[C@H]4COC5)n3)ccc2[nH]1` [Example 3, 1-(5-(6-((1R,5S)-3-oxa-8-azabicyclo[3.2.1]octan-8-yl)-4-(2-(methylsulfonyl)propan-2-yl)pyridin-2-yl)-1H-pyrrolo[3,2-b]pyridin-2-yl)-N-methylmethanamine], the IC50 was 3.16 to 316 nM. In the case of `CNCc1cc2nc(-c3cc(C(C)(C)S(C)(=O)=O)cc(N4CCOC[C@@H]4C)n3)ccc2[nH]1` [Example 2, (S)—N-methyl-1-(5-(6-(3-methylmorpholino)-4-(2-(methylsulfonyl)propan-2-yl)pyridin-2-yl)-1H-pyrrolo[3,2-b]pyridin-2-yl)methanamine], the IC50 was 3.16 to 316 nM. `CNCc1cc2nc(-c3cc(C4(S(C)(=O)=O)CCOCC4)cc(N4C5CCC4COC5)n3)ccc2[nH]1` [Example 40, ({5-[4-(4-methanesulfonyloxan-4-yl)-6-{3-oxa-8-azabicyclo[3.2.1]octan-8-yl}pyridin-2-yl]-1H-pyrrolo[3,2-b]pyridin-2-yl}methyl)(methyl)amine] was tested, and the IC50 was 3.16 to 316 nM. Work on `CC[C@H]1COCCN1c1cc(CS(C)(=O)=O)cc(-c2ccc3[nH]c(CO)cc3n2)n1` [Example 34, (5-{6-[(3S)-3-ethylmorpholin-4-yl]-4-(methanesulfonylmethyl)pyridin-2-yl}-1H-pyrrolo[3,2-b]pyridin-2-yl)methanol] yielded an IC50 of 2.51 to 10 nM. `CNCc1cc2nc(-c3cc(C(F)(F)S(C)(=O)=O)cc(N4CCOC[C@@H]4C)n3)ccc2[nH]1` [Example 12, (S)-1-(5-(4-(difluoro(methylsulfonyl)methyl)-6-(3-methylmorpholino)pyridin-2-yl)-1H-pyrrolo[3,2-b]pyridin-2-yl)-N-methylmethanamine] gave an IC50 of 3.16 to 316 nM. `CNCc1cc2nc(-c3cc(C4(S(C)(=O)=O)CC4)cc(N4CCOC[C@@H]4C)n3)ccc2[nH]1` [Example 20, ({5-[4-(1-methanesulfonylcyclopropyl)-6-[(3S)-3-methylmorpholin-4-yl]pyridin-2-yl]-1H-pyrrolo[3,2-b]pyridin-2-yl}methyl)(methyl)amine] gave an IC50 of 3.16 to 316 nM. Compound `CC[C@H]1COCCN1c1cc(C2(S(C)(=O)=O)CCOCC2)cc(-c2ccc3[nH]c(CN)cc3n2)n1` [Example 23, 1-(5-{6-[(3S)-3-ethylmorpholin-4-yl]-4-(4-methanesulfonyloxan-4-yl)pyridin-2-yl}-1H-pyrrolo[3,2-b]pyridin-2-yl)methanamine] has an IC50 of 2.51 to 10 nM. For `CNCc1cc2nc(-c3cc(C(C)(C)S(C)(=O)=O)cc(N4CC5CCC(C4)O5)n3)ccc2[nH]1` [Example 4, 1-(5-(6-(8-oxa-3-azabicyclo[3.2.1]octan-3-yl)-4-(2-(methylsulfonyl)propan-2-yl)pyridin-2-yl)-1H-pyrrolo[3,2-b]pyridin-2-yl)-N-methylmethanamine], the IC50 was 3.16 to 316 nM. With `CC[C@H]1COCCN1c1cc(C(C)(C)S(=O)(=O)C2CC2)cc(-c2ccc3[nH]c(CNC)cc3n2)n1` [Example 9, (S)-1-(5-(4-(2-(cyclopropylsulfonyl)propan-2-yl)-6-(3-ethylmorpholino)pyridin-2-yl)-1H-pyrrolo[3,2-b]pyridin-2-yl)-N-methylmethanamine] the IC50 was 3.16 to 316 nM. With `CC[C@H]1COCCN1c1cc(CS(=O)(=O)N(C)C)cc(-c2ccc3[nH]c(CNC)cc3n2)n1` [Example 17, (S)-1-(2-(3-ethylmorpholino)-6-(2-((methylamino)methyl)-1H-pyrrolo[3,2-b]pyridin-5-yl)pyridin-4-yl)-N,N-dimethylmethanesulfonamide] the IC50 was 2.51 to 10 nM. For `CC[C@H]1COCCN1c1cc(C2(S(=O)(=O)C3CC3)CC2)cc(-c2ccc3[nH]c(CNC)cc3n2)n1` [Example 11, (S)-1-(5-(4-(1-(cyclopropylsulfonyl)cyclopropyl)-6-(3-ethylmorpholino)pyridin-2-yl)-1H-pyrrolo[3,2-b]pyridin-2-yl)-N-methylmethanamine], the IC50 was 3.16 to 316 nM. Work on `CC[C@H]1COCCN1c1cc(CS(C)(=O)=O)cc(-c2ccc3[nH]c(CNC)cc3n2)n1` [Example 13, (S)-1-(5-(6-(3-ethylmorpholino)-4-((methylsulfonyl)methyl)pyridin-2-yl)-1H-pyrrolo[3,2-b]pyridin-2-yl)-N-methylmethanamine] yielded an IC50 of 3.16 to 316 nM. `CC[C@H]1COCCN1c1cc(CS(=O)(=O)NC)cc(-c2ccc3[nH]c(CNC)cc3n2)n1` [Example 30, 1-{2-[(3S)-3-ethylmorpholin-4-yl]-6-{2-[(methylamino)methyl]-1H-pyrrolo[3,2-b]pyridin-5-yl}pyridin-4-yl}-N-methylmethanesulfonamide] showed an IC50 of 3.16 to 316 nM.
